In patent US4588731A, “Derivatives of isoxazolo[4,5-c]quinoline(2H)-3-one and method of preparation and use as anxiolytic agents” (Roussel Uclaf, priority 1985, dated 1986):

Columns and labels:
[1] = target: benzodiazepine receptors; test: Affinity for benzodiazepine receptors (3H diazepam displacement, rat brain cortex membranes); type: binding, rats; settings: 3H diazepam 10^-9 M, 30 minutes at 0° C, read-out: C.I. 50 (concentration inhibiting 50% of the specific bond of 3H diazepam)
Protocol: A. Affinity for benzodiazepine receptors
The technique was inspired by that of Mohler et al [Science, Vol. 198 p. 849-851 (1977] in which the cortex from the brains of male rats weighing on average 150 g were homogenized to a twentieth (weight/volume) in 0.32M sucrose. After centrifuging the homogenate at 1000 g for 10 minutes at 0° C., the supernatant was centrifuged at 30,000 g for 20 minutes at 4° C. The residue was suspended in 20 volumes of Tris buffer HCl 50 mM pH 7.4 and centrifuged at 30,000 g for 20 minutes at 4° C. The new residue obtained was placed in 50 ml of Krebs Tris buffer HCl pH 7.4
2 ml of the suspension in the presence of ^3 H diazepam at a concentration of 10^-9 M were then incubated for 30 minutes at 0° C: (i) alone, (ii) with increasing concentrations of the product to be tested or, (iii) to determine the non-specific fixation, with non-radioactive diazepam at a concentration of 10^-6 M. The incubated suspension were filtered on Whatman GF/C and the filters were washed twice with 5 ml of Krebs Tris buffer HCl pH 7.4 at 0° C. The radioactivity of the filters was measured by liquid scintillation and the activity of the product was expressed in C.I.50, the concentration inhibiting 50% of the specific bond of ^3 H diazepam.

[2] = test system: mice; test: Acute toxicity, oral route in mice (LD0); type: in vivo
Protocol: The lethal doses LD0 of the different compounds tested after administration by oral route in mice were evaluated. The maximum dose not provoking any mortality in 8 days was called LD0 and the results obtained are in Table II.

[3] = test system: level of serous corticosterone; test: Activity on serous level of corticosterone after stress from noise; type: in vivo; settings: Rattus norvegicus, 1 h; rats, oral, stress from noise (90 decibels) one hour after dosing; read-out: DE50 (dose which reduced the increase in the level of serous corticosterone by 50%)
Protocol: C. Activity on serous level of corticosterone after stress from noise.
Groups of 5 rats were formed the day before the test and placed in a quiet room. The compounds were administered orally the following day between 8 and 9 o'clock in the morning. One hour afterwards, stress was applied which consisted of taking the animals from the cage and placing them in a room where a radio was playing loudly (90 decibels), then half an hour later, giving them an intraperitoneal puncture without injection. Ten minutes after this, the rats were anesthetized with halothane and samples of blood were taken by decapitation. The levels of serous corticosterone were then determined.
The results are expressed in DE50, that is to say in a dose of the compound tested which reduced the increase in the level of serous corticosterone by 50% in animals treated in comparison with the control animals. The results were DE50 in mg/kg of <50 and <100 for the compounds of Examples 2 and 4, respectively. Stress was less noticeable in the treated animals and those animals had therefore a degree of anxiety less than that of the control animals.

Row | SMILES | IC50 [1] [nM] | LD0 (maximum dose not provoking any mortality in 8 days) [2] [mg/kg] | ED50 [3] [mg/kg]
1 | O=c1c2cnc3ccccc3c2on1-c1ccccc1 [Example 1, 2-phenylisoxazolo(4,5-c)quinolin-3-(2H)-one] | 120 | ≥ 400 | –
2 | O=c1c2cnc3ccc(F)cc3c2on1-c1ccccc1 [Example 2, 8-fluoro-2-phenylisoxazolo(4,5-c)quinolin-3-(2H)-one] | 400 | ≥ 400 | < 50
3 | COc1ccc2c(c1)ncc1c(=O)n(-c3ccccc3)oc12 [Example 3, 7-methoxy-2-phenylisoxazolo(4,5-c)quinolin-3-(2H)-one] | – | ≥ 200 | –
4 | COc1ccc2ncc3c(=O)n(-c4ccccc4)oc3c2c1 [Example 4, 8-methoxy-2-phenylisoxazolo(4,5-c)quinolin-3-(2H)-one] | 2460 | 200 | < 100
5 | O=c1c2cnc3ccc(C(F)(F)F)cc3c2on1-c1ccccc1 [Example 5, 8-trifluoromethyl-2-phenylisoxazolo(4,5-c)quinolin-3-(2H)-one] | – | ≥ 200 | –
6 | O=c1c2cnc3ccc(Cl)cc3c2on1-c1ccccc1 [Example 7, 8-chloro-2-phenylisoxazolo(4,5-c)quinolin-3-(2H)-one] | – | ≥ 100 | –
